# Laboratory results: US20260297068A1, “SOLID FORM OF N-SUBSTITUTED PHENYLSULFONAMIDE COMPOUND” (SHANGHAI LEADO PHARMATECH CO. LTD., priority 2022, published 2026)
# Where a name gives a salt, the structure may show the parent alone.
# Legend:
# [1] = Solid-state stability (HPLC purity and crystal form by XRPD after storage); format: physicochemical; details: for Purity / Initial purity / HPLC purity after storage at 336 h / HPLC purity after storage at 672 h / HPLC purity after storage at 168 h: HPLC; for Initial purity: starting sample before storage; for HPLC purity after storage at 336 h / HPLC purity after storage at 672 h / HPLC purity after storage at 168 h: solid state, open
# Procedure: About 10 mg of each solid form of the compound was weighed and added to the HPLC vial, respectively, the bottleneck was sealed with a sealing film, and 10 small holes were made on the film. The vial was placed in 25° C./60% RH and 40° C./75% RH environment for 4 weeks, samples were taken in the 1st week, the 2nd week and the 4th week respectively, the purity (by HPLC analysis) and crystal form (by X ray powder diffraction analysis) of the sample were investigated.
# [2] = Hygroscopicity by dynamic moisture adsorption (DVS); format: physicochemical; details: 25° C./80% RH, 0% RH-95% RH adsorption curve
# Procedure: Dynamic moisture adsorption (DVS) analysis: the instrument is a DVS Intrinsic produced by SMS company (Surface Measurement Systems); temperature, 25° C.; carrier gas, flow rate: nitrogen, 200 mL/min; mass change per unit time: 0.002%/min; relative humidity range: 0% RH-95% RH.
# Dynamic moisture absorption (DVS) was used to test their hygroscopicity.
# [3] = 25 °C/60% RH/open, 1 week, 10080 min
# [4] = 25 °C/60% RH/open, 2 weeks, 20160 min
# [5] = 25 °C/60% RH/open, 4 weeks, 40320 min
# [6] = 40 °C/75% RH/open, 1 week, 10080 min
# [7] = 40 °C/75% RH/open, 2 weeks, 20160 min
# [8] = 40 °C/75% RH/open, 4 weeks, 40320 min
# [9] = 25° C./60% RH and 40° C./75% RH, 4 weeks, result in words
SMILES,"Purity [1, 3] [area %]","Purity [1, 4] [area %]","Purity [1, 5] [area %]","Purity [1, 6] [area %]","Purity [1, 7] [area %]","Purity [1, 8] [area %]",Initial purity [1] [area %],moisture adsorption value (moisture uptake) [2] [%],"HPLC purity change on storage [1, 9]","crystalline phase change on storage (XRPD) [1, 9]","HPLC purity after storage at 336 h ([1]; 40 °C/75% RH/open, 2 weeks) [%]","HPLC purity after storage at 672 h ([1]; 40 °C/75% RH/open, 4 weeks) [%]","HPLC purity after storage at 168 h ([1]; 25 °C/60% RH/open, 1 week) [%]","HPLC purity after storage at 336 h ([1]; 25 °C/60% RH/open, 2 weeks) [%]","HPLC purity after storage at 672 h ([1]; 25 °C/60% RH/open, 4 weeks) [%]","HPLC purity after storage at 168 h ([1]; 40 °C/75% RH/open, 1 week) [%]"
"CNCc1ccc(NS(=O)(=O)c2ccsc2)c(-c2ccco2)c1 [Malonate crystal form K, N-(2-(furan-2-yl)-4-((methylamino)methyl)phenyl)thiophene-3-sulfonamide]",98.64,98.61,98.59,98.64,98.58,98.46,98.64,,,,,,,,,
"CNCc1ccc(NS(=O)(=O)c2ccsc2)c(-c2ccco2)c1 [Phosphate crystal form G, N-(2-(furan-2-yl)-4-((methylamino)methyl)phenyl)thiophene-3-sulfonamide]",98.11,98.09,98.04,98.11,98.06,98.01,98.11,,,,,,,,,
"CNCc1ccc(NS(=O)(=O)c2ccsc2)c(-c2ccco2)c1 [Pyroglutamate crystal form I, N-(2-(furan-2-yl)-4-((methylamino)methyl)phenyl)thiophene-3-sulfonamide]",98.61,98.58,98.57,98.61,98.54,98.32,98.61,,,,,,,,,
"CNCc1ccc(NS(=O)(=O)c2ccsc2)c(-c2ccco2)c1 [Tartrate crystal form H, N-(2-(furan-2-yl)-4-((methylamino)methyl)phenyl)thiophene-3-sulfonamide]",98.71,98.62,98.6,98.7,98.6,98.53,98.71,,,,,,,,,
"CNCc1ccc(NS(=O)(=O)c2ccsc2)c(-c2ccco2)c1 [benzene sulfonate crystal form J, N-(2-(furan-2-yl)-4-((methylamino)methyl)-phenyl)thiophene-3-sulfonamide]",98.87,98.85,98.82,98.87,98.82,98.79,98.87,,,,,,,,,

# Other lines, results leading:
"Purity [1, 3] [area %]","Purity [1, 4] [area %]","Purity [1, 5] [area %]","Purity [1, 6] [area %]","Purity [1, 7] [area %]","Purity [1, 8] [area %]",Initial purity [1] [area %],moisture adsorption value (moisture uptake) [2] [%],"HPLC purity change on storage [1, 9]","crystalline phase change on storage (XRPD) [1, 9]","HPLC purity after storage at 336 h ([1]; 40 °C/75% RH/open, 2 weeks) [%]","HPLC purity after storage at 672 h ([1]; 40 °C/75% RH/open, 4 weeks) [%]","HPLC purity after storage at 168 h ([1]; 25 °C/60% RH/open, 1 week) [%]","HPLC purity after storage at 336 h ([1]; 25 °C/60% RH/open, 2 weeks) [%]","HPLC purity after storage at 672 h ([1]; 25 °C/60% RH/open, 4 weeks) [%]","HPLC purity after storage at 168 h ([1]; 40 °C/75% RH/open, 1 week) [%]",SMILES
98.18,98.14,98.1,98.19,,,98.11,1.6,did not decrease significantly,no detectable crystalline phase changes,98.2,98.1,,,,,"CNCc1ccc(NS(=O)(=O)c2ccsc2)c(-c2ccco2)c1 [free crystal form A, N-(2-(furan-2-yl)-4-((methylamino)methyl)phenyl)thiophene-3-sulfonamide]"
,,,,98.5,98.52,98.55,0.2,,,,,98.5,98.5,98.6,98.4,"CNCc1ccc(NS(=O)(=O)c2ccsc2)c(-c2ccco2)c1 [fumarate crystal form B, N-(2-(furan-2-yl)-4-((methylamino)methyl)phenyl)thiophene-3-sulfonamide]"
98.97,98.92,98.87,99.02,98.9,99,99.02,5.5,,,,,,,,,"CNCc1ccc(NS(=O)(=O)c2ccsc2)c(-c2ccco2)c1 [hydrochloride crystal form C, N-(2-(furan-2-yl)-4-((methylamino)methyl)phenyl)thiophene-3-sulfonamide]"
98.72,98.7,98.79,98.74,98.75,98.68,98.72,1.4,,,,,,,,,"CNCc1ccc(NS(=O)(=O)c2ccsc2)c(-c2ccco2)c1 [malate crystal form F, N-(2-(furan-2-yl)-4-((methylamino)methyl)phenyl)thiophene-3-sulfonamide]"
98.92,98.86,98.94,98.92,98.72,98.98,98.82,0.6,,,,,,,,,"CNCc1ccc(NS(=O)(=O)c2ccsc2)c(-c2ccco2)c1 [succinate crystal form E, N-(2-(furan-2-yl)-4-((methylamino)methyl)phenyl)thiophene-3-sulfonamide]"
98.74,98.65,98.78,98.76,98.65,98.78,98.77,1.3,,,,,,,,,"CNCc1ccc(NS(=O)(=O)c2ccsc2)c(-c2ccco2)c1 [sulfate crystal form D, N-(2-(furan-2-yl)-4-((methylamino)methyl)phenyl)thiophene-3-sulfonamide]"
